Results on 19 molecules are retold here after the COVID Moonshot data (paper PMC11187573), “Identification of SARS-CoV-2 Mpro inhibitors through deep reinforcement learning for de novo drug design and computational chemistry approaches” (RSC Medicinal Chemistry, 2024).

In data set [1] the target is SARS-CoV-2 Main Protease (SARS-CoV-2) (UniProt P0DTD1).
Data set [2] has the same target. The source holds these as a separate data set.

In general, inhibition refers to the relative decrease from the control value, in per cent. Take `Cc1ccc(NC(=O)Cc2cccc(Cl)c2)cn1`: the relative solubility at 20 uM was determined as 0.99 and the relative solubility at 100 uM came to 1. The inhibition in data set [1] (20.0 µM) was found to be 0.36%. For the same molecule, the inhibition in data set [1] (50.0 µM) was 3.35%. In addition, the inhibition in data set [2] (50.0 µM) worked out at 0%.

`Cn1cnnc1NC(=O)Cc1cccc(Cl)c1`: the relative solubility at 20 uM was determined as 1.01 and the relative solubility at 100 uM was 1. For the same molecule, in data set [1] (20.0 µM), the inhibition came to 5.99%. For the same molecule, the inhibition in data set [1] (50.0 µM) was -26%. Also, the inhibition in data set [2] (50.0 µM) was -10.5%.

In turn, `CC(C)(C)CC(=O)C(C#N)C(=O)Nc1ccccc1` (configuration not stated) had a relative solubility at 20 uM of 1 and a relative solubility at 100 uM of 1. Moreover, the inhibition in data set [1] (50.0 µM) amounted to 21.6%. In addition, the inhibition in data set [2] (20.0 µM) stood at 2.52%. In addition, in data set [2] (50.0 µM), the inhibition is 0%.

Take `C=CC(=O)N(c1ccc(N(C)C)c(C)c1)C(C(=O)Nc1c(C)cccc1CC)c1cccnc1` (configuration not stated): the relative solubility at 20 uM amounted to 0.9 and the relative solubility at 100 uM was determined as 0.77. In addition, the inhibition in data set [1] (20.0 µM) is 6.4%. Besides, in data set [1] (50.0 µM), the inhibition stood at 13.2%. Also, the inhibition in data set [2] (20.0 µM) was determined as 0%.

On to `CC1CN(Cc2ccccc2NC(=O)NCc2cnsc2)CC(C)O1` (configuration not stated), for which the relative solubility at 20 uM is 1 and the relative solubility at 100 uM stood at 0.98. In addition, in data set [1] (20.0 µM), the inhibition came out at 1.48%. Besides, the inhibition in data set [1] (50.0 µM) was 4.44%. For the same molecule, the inhibition in data set [2] (20.0 µM) is 0%. In data set [2] (50.0 µM), the inhibition came to 1.33%.

`O=C(Cc1cccnc1)Nc1cc(Cl)ccc1O` gave a relative solubility at 20 uM of 1.01 and a relative solubility at 100 uM of 0.98. Moreover, the inhibition in data set [1] (20.0 µM) was -1.54%. Moreover, the inhibition in data set [1] (50.0 µM) stood at 23.3%. In addition, the inhibition in data set [2] (50.0 µM) came to 6.62%.

In turn, `CS(=O)(=O)NCCc1ccccc1O` displayed a relative solubility at 20 uM of 1 and a relative solubility at 100 uM of 1. For the same molecule, in data set [1] (50.0 µM), the inhibition worked out at 14.4%. In data set [2] (20.0 µM), the inhibition came to 0%. Further, the inhibition in data set [2] (50.0 µM) was determined as 0%.

Usually IC50 stands for the concentration that inhibits the measured activity by half. Read a high IC50 as lower potency. The molecule `COCc1cc(Cl)cc(CN2CCN(C(=O)CCl)CC2)c1` registered a relative solubility at 20 uM of 0.98 and a relative solubility at 100 uM of 0.99. Moreover, the inhibition in data set [1] (20.0 µM) worked out at 97.6%. Moreover, the inhibition in data set [1] (50.0 µM) is 99.9%. This molecule came in with an IC50 in data set [2] of 1.31 µM. Also, in data set [2] (50.0 µM), the inhibition was 118%.

In turn, `O=C(Nc1cccnc1)c1cccc(Cl)c1` had a relative solubility at 20 uM of 1 and a relative solubility at 100 uM of 0.92. In data set [1] (20.0 µM), the inhibition was 5.47%. Also, the inhibition in data set [1] (50.0 µM) was 6.67%. The inhibition in data set [2] (20.0 µM) amounted to 0%.

As to `Cc1ccncc1NC(=O)CCOC1CC1`, the relative solubility at 20 uM was determined as 1 and the relative solubility at 100 uM amounted to 1. Also, the inhibition in data set [1] (20.0 µM) was 8.26%. The inhibition in data set [1] (50.0 µM) is 22%. In addition, the inhibition in data set [2] (50.0 µM) is 0%.

On to `N#Cc1ccc(S(=O)(=O)N2CCN(C(=O)c3cc(=O)[nH]c4ccc(F)cc34)CC2)cc1`, for which the relative solubility at 20 uM was 0.98 and the relative solubility at 100 uM came to 0.98. Besides, the inhibition in data set [1] (20.0 µM) stood at 2.67%. In data set [1] (50.0 µM), the inhibition turned out to be 10.4%. Further, the inhibition in data set [2] (50.0 µM) turned out to be 33.7%.

Take `O=C(Nc1cnccc1CO)[C@@H]1COc2ccc(Cl)cc21` (stereo in doubt): the relative solubility at 20 uM came out at 1.01 and the relative solubility at 100 uM was 1. Also, the inhibition in data set [1] (20.0 µM) turned out to be 46.1%. In addition, the inhibition in data set [1] (50.0 µM) came out at 73.1%. The molecule also came in with an IC50 in data set [2] of 18.4 µM. In data set [2] (50.0 µM), the inhibition is 58.6%.

In the case of `Cc1cccc(C)c1OCC(=O)NCCc1ccccc1`, the relative solubility at 20 uM was 1 and the relative solubility at 100 uM came to 0.98. For the same molecule, the inhibition in data set [1] (20.0 µM) was found to be 1.78%. The inhibition in data set [1] (50.0 µM) is 7.25%. In addition, the inhibition in data set [2] (20.0 µM) worked out at 0%. In data set [2] (50.0 µM), the inhibition worked out at 0%.

In turn, `CS(=O)(=O)c1ncc(Cl)c(C(=O)Nc2ccccc2Cc2ccccc2)n1` registered a relative solubility at 20 uM of 0.96 and a relative solubility at 100 uM of 0.79. Further, the inhibition in data set [1] (20.0 µM) was found to be 96.3%. Also, the inhibition in data set [1] (50.0 µM) is 94.7%. This molecule also returned an IC50 in data set [2] of 0.826 µM. The inhibition in data set [2] (50.0 µM) is 100%.

For the molecule `Cc1[nH]ncc1NC(=O)Cc1cccc(Cl)c1`, the relative solubility at 20 uM came to 0.99 and the relative solubility at 100 uM turned out to be 1. The inhibition in data set [1] (20.0 µM) worked out at 3.64%. In addition, in data set [1] (50.0 µM), the inhibition came to 6.93%. The inhibition in data set [2] (50.0 µM) was 52.1%.

The molecule `Cc1cc(-c2nc3ccccc3[nH]2)ccc1O` had a relative solubility at 20 uM of 0.99 and a relative solubility at 100 uM of 1. Besides, the inhibition in data set [1] (20.0 µM) is -10.3%. For the same molecule, in data set [1] (50.0 µM), the inhibition was -36.8%. Besides, the inhibition in data set [2] (50.0 µM) is -3.73%.

On to `C=CC(=O)N(c1ccc(C(C)(C)C)cc1)C(C(=O)Nc1ccc(OC)nc1)c1cccnc1` (configuration not stated), for which the relative solubility at 20 uM came to 1 and the relative solubility at 100 uM is 1. Further, the inhibition in data set [1] (20.0 µM) was 1.08%. Moreover, the inhibition in data set [1] (50.0 µM) is 13.4%. The inhibition in data set [2] (20.0 µM) was 0%. Further, the inhibition in data set [2] (50.0 µM) amounted to 0%.

`O=C(Cc1ccc2[nH]c(=O)[nH]c2c1)NC1(CNC(=O)c2cnc[nH]2)CC1`: the relative solubility at 20 uM turned out to be 1 and the relative solubility at 100 uM was determined as 1. In data set [1] (20.0 µM), the inhibition turned out to be 6.85%. In data set [1] (50.0 µM), the inhibition turned out to be 3.02%. In data set [2], this molecule yielded an IC50 of 27.3 µM. Further, the inhibition in data set [2] (50.0 µM) turned out to be 76.6%.

Take `Nc1ncc(S(=O)(=O)NCc2cccc(Cl)c2)cn1`: the relative solubility at 20 uM came out at 1 and the relative solubility at 100 uM was 0.97. In data set [1] (20.0 µM), the inhibition turned out to be 5.4%. Besides, in data set [1] (50.0 µM), the inhibition is -6.16%. Also, in data set [2] (50.0 µM), the inhibition came out at 6.76%.
